Source: ChEMBL document CHEMBL5344413, “Discovery of 4-(1,2,4-Oxadiazol-5-yl)azepan-2-one Derivatives as a New Class of Cannabinoid Type 2 Receptor Agonists for the Treatment of Inflammatory Pain” (J Med Chem, 2023)
Activity calls are given as the source filed them.

How the values were obtained:
[1] = Intrinsic clearance in rat liver microsomes at 10 uM measured per mg protein; assay type: ADME, Microsome; conditions: read-out: CLH
[2] = Half life in rat liver microsomes at 10 uM; assay type: ADME, Microsome
[3] = tested on: CHO; test: Induction of ERK1/2 phosphorylation in Chinese hamster CHO cells at 1000 nM measured after 15 mins by western blot analysis; assay type: cell-based; conditions: Cricetulus griseus
[4] = Clearance in BALB/c mouse at 1 mg/kg, iv; assay type: ADME, organism-based; conditions: in vivo
[5] = tested on: Mus musculus; test: (§1) Antinociceptive activity against ip dosed carrageenan-induced inflammatory C57BL/6 mouse model assessed as reduction in hyperalgesia by measuring increase in paw withdrawal threshold measured at 5 hrs and 2 hrs following carrageenan and compound challenge respectively by plantar esthesiometer analysis; assay type: functional, organism-based; conditions: dose 5-20 mg/kg
[6] = tested on: CHO; test: Induction of Akt phosphorylation in Chinese hamster CHO cells at 1000 nM measured after 15 mins by western blot analysis; assay type: cell-based; conditions: Cricetulus griseus
[7] = Tmax in BALB/c mouse at 5 mg/kg, ip; assay type: ADME, organism-based; conditions: in vivo
[8] = biological target: T1, Cannabinoid receptor 2 (Homo sapiens, UniProt P34972); test: Agonist activity at N-terminal HA/Flag-tagged CB2 receptor (unknown origin) expressed in CHO cells assessed as increase in ERK1/2 phosphorylation at 300 nM measured after 15 mins in presence of CB2 receptor antagonist, AM630 by western blot analysis; assay type: functional, cell-based
[9] = AUC(0 to t) in BALB/c mouse at 5 mg/kg, po; assay type: ADME, organism-based; design: dose 5 mg/kg, route po; conditions: in vivo
[10] = Half life in mouse liver microsomes at 10 uM; assay type: ADME, Microsome
[11] = species on record: Homo sapiens; test: Selectivity ratio of EC50 for agonist activity at human CB1 receptor expressed in CHO cells to EC50 for agonist activity at human CB2 receptor expressed in CHO cells; assay type: cell-based
[12] = tested on: Mus musculus; test: (§2) Antinociceptive activity against carrageenan-induced inflammatory C57BL/6 mouse model assessed as reduction in paw thickness at 20 mg/kg, ip measured at 5 hrs and 2 hrs following carrageenan and compound challenge respectively by digital caliper analysis; assay type: functional, organism-based
[13] = Metabolic stability of the compound in human liver microsomes assessed as parent compound remaining at 10 uM measured after 60 mins; assay type: ADME, Microsome; conditions: read-out: Stability
[14] = Intrinsic clearance in human liver microsomes at 10 uM measured per mg protein; assay type: ADME, Microsome; conditions: read-out: CLH
[15] = MRT(0 to t) in BALB/c mouse at 1 mg/kg, iv; assay type: ADME, organism-based; conditions: in vivo
[16] = Metabolic stability of the compound in mouse liver microsomes assessed as parent compound remaining at 10 uM measured after 60 mins; assay type: ADME, Microsome; conditions: read-out: Stability
[17] = tested on: Mus musculus; test: as §1, with “against” for “against ip dosed”, “threshold at 20 mg/kg, po” for “threshold”; assay type: functional, organism-based
[18] = tested on: CHO; test: Agonist activity at CB2 receptor W1945.43A mutant (unknown origin) expressed in CHO cells assessed as inhibition of forskolin-stimulated intracellular cAMP accumulation measured after 30 mins by Glosensor assay; assay type: cell-based; conditions: Homo sapiens
[19] = Intrinsic clearance in mouse liver microsomes at 10 uM measured per mg protein; assay type: ADME, Microsome; conditions: read-out: CLH
[20] = Half life in BALB/c mouse at 5 mg/kg, po; assay type: ADME, organism-based; conditions: in vivo
[21] = Metabolic stability of the compound in rat liver microsomes assessed as parent compound remaining at 10 uM measured after 60 mins; assay type: ADME, Microsome; conditions: read-out: Stability
[22] = Cmax in BALB/c mouse at 5 mg/kg, po; assay type: ADME, organism-based; design: dose 5 mg/kg, route po; conditions: in vivo
[23] = Toxicity against C57BL/6 mouse assessed as change in body temperature at 20 mg/kg, ip measured within 4 hrs by thermometer analysis; assay type: organism-based; conditions: in vivo
[24] = Clearance in BALB/c mouse at 5 mg/kg, po; assay type: ADME, organism-based; conditions: in vivo
[25] = biological target: T1, Cannabinoid receptor 2; test: Agonist activity at N-terminal HA/Flag-tagged CB2 receptor (unknown origin) expressed in CHO cells assessed as increase in Akt phosphorylation measured after 15 mins by western blot analysis; assay type: functional, cell-based; conditions: filed as agonist, dose 12-300 nM
[26] = AUC(0 to t) in BALB/c mouse at 5 mg/kg, ip; assay type: ADME, organism-based; design: dose 5 mg/kg, route ip; conditions: in vivo
[27] = Half life in BALB/c mouse at 5 mg/kg, ip; assay type: ADME, organism-based; conditions: in vivo
[28] = tested on: CHO; test: Agonist activity at CB2 receptor F872.57A mutant (unknown origin) expressed in CHO cells assessed as inhibition of forskolin-stimulated intracellular cAMP accumulation measured after 30 mins by Glosensor assay; assay type: cell-based; conditions: Homo sapiens
[29] = Half life in BALB/c mouse at 1 mg/kg, iv; assay type: ADME, organism-based; conditions: in vivo
[30] = Intrinsic clearance in mouse liver at 10 uM measured per kg body weight; assay type: ADME, tissue-based
[31] = Half life in BALB/c mouse at 20 mg/kg, po; assay type: ADME, organism-based; conditions: in vivo
[32] = Cmax in BALB/c mouse at 1 mg/kg, iv; assay type: ADME, organism-based; design: dose 1 mg/kg, route iv; conditions: in vivo
[33] = MRT(0 to t) in BALB/c mouse at 5 mg/kg, ip; assay type: ADME, organism-based; conditions: in vivo
[34] = tested on: Mus musculus; test: as §2, with “mg/kg, ip administered with CB2 receptor antagonist, AM630 at 10 mins prior to drug challenge and measured at” for “mg/kg, ip measured at”; assay type: functional, organism-based
[35] = Tmax in BALB/c mouse at 5 mg/kg, po; assay type: ADME, organism-based; conditions: in vivo
[36] = Half life in human liver microsomes at 10 uM; assay type: ADME, Microsome
[37] = biological target: T1, Cannabinoid receptor 2; test: Agonist activity at N-terminal HA/Flag-tagged CB2 receptor (unknown origin) expressed in CHO cells assessed as increase in Akt phosphorylation at 300 nM measured after 15 mins in presence of CB2 receptor antagonist, AM630 by western blot analysis; assay type: functional, cell-based
[38] = Tmax in BALB/c mouse at 1 mg/kg, iv; assay type: ADME, organism-based; conditions: in vivo
[39] = Intrinsic clearance in rat liver at 10 uM measured per kg body weight; assay type: ADME, tissue-based
[40] = biological target: T1, Cannabinoid receptor 2; test: Agonist activity at N-terminal HA/Flag-tagged CB2 receptor (unknown origin) expressed in CHO cells assessed as increase in ERK1/2 phosphorylation measured after 15 mins by western blot analysis; assay type: functional, cell-based; conditions: filed as agonist, dose 12-300 nM
[41] = biological target: T1, Cannabinoid receptor 2; test: Agonist activity at human CB2 receptor expressed in CHO cells assessed as inhibition of forskolin-stimulated intracellular cAMP accumulation measured after 30 mins by Glosensor assay; assay type: functional, cell-based
[42] = MRT(0 to t) in BALB/c mouse at 5 mg/kg, po; assay type: ADME, organism-based; conditions: in vivo
[43] = Protein binding in mouse plasma by dialysis method; assay type: ADME, cell-free; conditions: read-out: PPB (converted)
[44] = biological target: T1, Cannabinoid receptor 2; test: Agonist activity at LgBiT-fused CB2 receptor (unknown origin) coexpressed with miniGalphai-SmBiT in HEK293T cells assessed as G-protein recruitment by measuring complementation measured after 10 mins by NanoBiT luciferase assay; assay type: functional, cell-based
[45] = tested on: Cannabinoid receptor 2 (Homo sapiens), P34972 [UNDEFINED MUTATION]; test: Agonist activity at CB2 receptor F183ECL2A mutant (unknown origin) expressed in CHO cells assessed as inhibition of forskolin-stimulated intracellular cAMP accumulation measured after 30 mins by Glosensor assay; assay type: cell-based
[46] = biological target: Cannabinoid receptor 1 (Homo sapiens, UniProt P21554); test: Agonist activity at human CB1 receptor expressed in CHO cells assessed as inhibition of forskolin-stimulated intracellular cAMP accumulation measured after 30 mins by Glosensor assay; assay type: cell-based
[47] = Clearance in BALB/c mouse at 5 mg/kg, ip; assay type: ADME, organism-based; conditions: in vivo
[48] = Protein binding in human plasma by dialysis method; assay type: ADME, cell-free; conditions: read-out: PPB (converted)
[49] = Intrinsic clearance in human liver at 10 uM measured per kg body weight; assay type: ADME, tissue-based
[50] = Protein binding in rat plasma by dialysis method; assay type: ADME, cell-free; conditions: read-out: PPB (converted)
[51] = Bioavailability in BALB/c mouse at 5 mg/kg, ip; assay type: ADME, organism-based; conditions: in vivo
[52] = tested on: Mus musculus; test: as §1, with “against” for “against ip dosed”, “threshold at 20 mg/kg, ip administered with CB2 receptor antagonist, AM630 at 10 mins prior to drug challenge and” for “threshold”; assay type: functional, organism-based
[53] = Cmax in BALB/c mouse at 5 mg/kg, ip; assay type: ADME, organism-based; design: dose 5 mg/kg, route ip; conditions: in vivo
[54] = Toxicity against C57BL/6 mouse assessed as induction of catalepsy at 20 mg/kg, ip measured within 4 hrs; assay type: organism-based; conditions: in vivo
[55] = biological target: T1, Cannabinoid receptor 2; test: Agonist activity at human CB2 receptor expressed in CHO cells assessed as inhibition of forskolin-stimulated intracellular cAMP accumulation measured after 30 mins by Glosensor assay relative to control; assay type: functional, cell-based; conditions: filed as agonist
[56] = Oral bioavailability in BALB/c mouse at 5 mg/kg; assay type: ADME, organism-based; conditions: in vivo
[57] = biological target: T1, Cannabinoid receptor 2; test: Agonist activity at LgBiT-fused CB2 receptor (unknown origin) coexpressed with miniGalphai-SmBiT in HEK293T cells assessed as G-protein recruitment measured after 10 mins in presence of CB2 receptor antagonist, AM630 by NanoBiT luciferase assay; assay type: functional, cell-based
[58] = AUC(0 to t) in BALB/c mouse at 1 mg/kg, iv; assay type: ADME, organism-based; design: dose 1 mg/kg, route iv; conditions: in vivo
[59] = AUC(0 to infinity) in BALB/c mouse at 20 mg/kg, po; assay type: ADME, organism-based; design: dose 20 mg/kg, route po; conditions: in vivo

T1 sequence (P34972 whole entry): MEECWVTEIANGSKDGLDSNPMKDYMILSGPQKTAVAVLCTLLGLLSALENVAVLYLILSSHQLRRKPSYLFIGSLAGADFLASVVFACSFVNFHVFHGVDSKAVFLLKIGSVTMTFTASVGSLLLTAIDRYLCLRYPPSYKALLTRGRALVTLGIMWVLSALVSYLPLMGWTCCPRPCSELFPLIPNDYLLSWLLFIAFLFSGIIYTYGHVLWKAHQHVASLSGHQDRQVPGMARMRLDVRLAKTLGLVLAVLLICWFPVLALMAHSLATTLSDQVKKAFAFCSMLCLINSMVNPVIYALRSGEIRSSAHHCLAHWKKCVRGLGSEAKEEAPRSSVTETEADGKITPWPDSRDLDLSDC
Sequence of Cannabinoid receptor 1 (P21554 whole entry): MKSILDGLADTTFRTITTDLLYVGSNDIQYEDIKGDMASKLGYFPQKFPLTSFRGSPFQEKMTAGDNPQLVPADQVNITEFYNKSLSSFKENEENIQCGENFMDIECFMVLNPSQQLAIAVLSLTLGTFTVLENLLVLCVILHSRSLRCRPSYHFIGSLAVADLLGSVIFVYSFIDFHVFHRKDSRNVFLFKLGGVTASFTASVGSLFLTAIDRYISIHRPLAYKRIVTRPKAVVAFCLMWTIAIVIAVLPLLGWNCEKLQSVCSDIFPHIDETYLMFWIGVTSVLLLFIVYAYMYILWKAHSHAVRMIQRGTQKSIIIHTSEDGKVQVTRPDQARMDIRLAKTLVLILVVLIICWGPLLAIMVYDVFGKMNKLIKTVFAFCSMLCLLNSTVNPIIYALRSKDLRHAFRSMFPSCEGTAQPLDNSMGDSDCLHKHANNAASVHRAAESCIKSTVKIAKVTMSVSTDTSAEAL
Sequence of Cannabinoid receptor 2 (Homo sapiens), P34972 [UNDEFINED MUTATION] (P34972 whole entry, looked up, stated change not applied): as the sequence (P34972 whole entry) above

In the case of `O=C1CC(c2nc(-c3ccc(F)c4cn[nH]c34)no2)CCCN1c1ccc(F)cc1` (centres undefined), the microsomal CLint at 10 µM [1] is reported as 130 µL/min/mg, the half-life at 10 µM [2] is reported as 10.7 min and the Activity [3] is reported as “inactive”. The clearance [4] was 41.2 mL/min/kg, the Activity [5] was “Dose-Dependent Effect” and the Activity [6] was “inactive”. The Tmax [7] was 19.8 min, the Activity [8] was “inactive” and the AUC(0-t) [9] was 1660 ng·h/mL. For the same compound, the half-life at 10 µM [10] was 13.1 min, the Ratio EC50 [11] was over 1430 and the Activity [12] was “Active”. For the same compound, the remaining at 1 h, 10 µM [13] was 46.3%, the microsomal CLint at 10 µM [14] was 23 µL/min/mg and the MRT last [15] was 49.8 min. The remaining at 1 h, 10 µM [16] was 3.15%, the Activity [17] was “Active” and the Activity [18] was “inactive”. The microsomal CLint at 10 µM [19] was 106 µL/min/mg, the half-life [20] was 42 min and the remaining at 1 h, 10 µM [21] was 1.83%. The Cmax [22] was 621 ng/mL, the Activity [23] was “Non-Toxic” and the CL/F [24] was 50.8 mL/min/kg. The Activity [25] was “Dose-Dependent Effect”, the AUC(0-t) [26] was 1830 ng·h/mL and the half-life [27] was 56.4 min. The Activity [28] was “inactive”, the half-life [29] was 70.8 min and the CLH [30] was 415 mL/min/kg. The half-life [31] was 224 min, the Cmax [32] was 615 ng/mL and the MRT last [33] was 103 min. For the same compound, the Activity [34] was “inactive”, the Tmax [35] was 25.2 min and the half-life at 10 µM [36] was 60.3 min. For the same compound, the Activity [37] was “inactive”, the Tmax [38] was 4.8 min and the CLH [39] was 232 mL/min/kg. The Activity [40] was “Dose-Dependent Effect”, the EC50 [41] was 21 nM and the MRT last [42] was 128 min. The fraction unbound [43] was 0.032, the EC50 [44] was 84.7 nM and the Activity [45] was “inactive”. The EC50 [46] was over 30000 nM, the CL/F [47] was 45.8 mL/min/kg and the fraction unbound [48] was 0.011. It also gave a CLH [49] of 28.8 mL/min/kg, a fraction unbound [50] of 0.074 and a bioavailability [51] of 88.5%. For the same compound, the Activity [52] was “inactive”, the Cmax [53] was 1080 ng/mL and the Activity [54] was “Non-Toxic”. The Emax [55] was 87%, the bioavailability [56] was 80.5% and the Activity [57] was “inactive”. It also gave an AUC(0-t) [58] of 413 ng·h/mL and an AUC(0-inf) [59] of 18000 ng·h/mL.
